# Assay results taken from PMC6937300, “A novel phytocannabinoid isolated from Cannabis sativa L. with an in vivo cannabimimetic activity higher than Δ^9-tetrahydrocannabinol: Δ^9-Tetrahydrocannabiphorol” (Scientific Reports, 2019).
# pKi: −log10 of the molar value.
# Biological target: T1, human CB1 receptor (Homo sapiens, UniProt P21554)
# T1 construct: gene CNR1
# T1 sequence (P21554 whole entry): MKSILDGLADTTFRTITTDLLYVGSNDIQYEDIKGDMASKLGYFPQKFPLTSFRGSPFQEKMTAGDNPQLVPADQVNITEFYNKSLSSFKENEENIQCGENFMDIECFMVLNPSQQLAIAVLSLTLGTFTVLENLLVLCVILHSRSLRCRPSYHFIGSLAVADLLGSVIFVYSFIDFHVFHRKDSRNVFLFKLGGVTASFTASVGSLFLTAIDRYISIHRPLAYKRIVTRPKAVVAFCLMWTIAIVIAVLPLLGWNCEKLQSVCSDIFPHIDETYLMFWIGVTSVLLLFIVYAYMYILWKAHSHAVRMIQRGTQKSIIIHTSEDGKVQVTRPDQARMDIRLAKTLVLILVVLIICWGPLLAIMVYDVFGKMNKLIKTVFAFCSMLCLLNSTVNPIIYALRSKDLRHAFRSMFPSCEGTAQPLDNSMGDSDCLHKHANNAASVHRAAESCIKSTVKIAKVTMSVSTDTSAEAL
structure (smiles),measurement,value
"CCCCCCCc1cc(O)c2c(c1)OC(C)(C)[C@@H]1CCC(C)=C[C@@H]21 [(-)-trans-Δ^9-THCP, (6aR,10aR)-3-heptyl-6,6,9-trimethyl-6a,7,8,10a-tetrahydro-6H-benzo[c]chromen-1-ol]",pKi,8.92
